The NIST ThermoML archive (doi:10.1016/j.jct.2012.06.012)
Numbers after ± are expanded uncertainties.

Experiment: xn = mol fraction of the nth substance listed
Settings: Liquid, Vibrating tube method

Question: Which results are given for `CCCCCCCCCC` [decane] + CCO?
Answer: mass density (352.7 K, 1000 kPa, x2 = 0.1011): 683.33 ± 0.23 kg/m3; mass density (352.7 K, 2000 kPa, x2 = 0.1011): 684.45 ± 0.25 kg/m3; mass density (352.7 K, 3000 kPa, x2 = 0.1011): 685.55 ± 0.26 kg/m3; mass density (352.7 K, 4000 kPa, x2 = 0.1011): 686.65 ± 0.27 kg/m3; mass density (352.7 K, 5000 kPa, x2 = 0.1011): 687.72 ± 0.29 kg/m3; mass density (352.7 K, 6000 kPa, x2 = 0.1011): 688.78 ± 0.3 kg/m3; mass density (352.7 K, 7000 kPa, x2 = 0.1011): 689.84 ± 0.32 kg/m3; mass density (352.7 K, 8000 kPa, x2 = 0.1011): 690.9 ± 0.33 kg/m3; mass density (352.7 K, 9000 kPa, x2 = 0.1011): 691.94 ± 0.35 kg/m3; mass density (352.7 K, 10000 kPa, x2 = 0.1011): 692.96 ± 0.36 kg/m3; mass density (352.7 K, 11000 kPa, x2 = 0.1011): 693.98 ± 0.37 kg/m3; mass density (352.7 K, 12000 kPa, x2 = 0.1011): 695 ± 0.39 kg/m3; mass density (352.7 K, 13000 kPa, x2 = 0.1011): 695.99 ± 0.4 kg/m3; mass density (352.7 K, 14000 kPa, x2 = 0.1011): 696.97 ± 0.42 kg/m3; mass density (352.7 K, 15000 kPa, x2 = 0.1011): 697.93 ± 0.43 kg/m3; mass density (352.7 K, 16000 kPa, x2 = 0.1011): 698.88 ± 0.44 kg/m3; mass density (352.7 K, 17000 kPa, x2 = 0.1011): 699.83 ± 0.46 kg/m3; mass density (352.7 K, 18000 kPa, x2 = 0.1011): 700.74 ± 0.47 kg/m3; mass density (352.7 K, 19000 kPa, x2 = 0.1011): 701.63 ± 0.49 kg/m3; mass density (352.7 K, 20000 kPa, x2 = 0.1011): 702.51 ± 0.5 kg/m3; mass density (352.76 K, 1000 kPa, x2 = 0.7526): 702.43 ± 0.22 kg/m3; mass density (352.76 K, 2000 kPa, x2 = 0.7526): 703.63 ± 0.23 kg/m3; mass density (352.76 K, 3000 kPa, x2 = 0.7526): 704.82 ± 0.25 kg/m3; mass density (352.76 K, 4000 kPa, x2 = 0.7526): 706.01 ± 0.26 kg/m3; mass density (352.76 K, 5000 kPa, x2 = 0.7526): 707.19 ± 0.27 kg/m3; mass density (352.76 K, 6000 kPa, x2 = 0.7526): 708.35 ± 0.29 kg/m3; mass density (352.76 K, 7000 kPa, x2 = 0.7526): 709.51 ± 0.3 kg/m3; mass density (352.76 K, 8000 kPa, x2 = 0.7526): 710.66 ± 0.31 kg/m3; mass density (352.76 K, 9000 kPa, x2 = 0.7526): 711.8 ± 0.33 kg/m3; mass density (352.76 K, 10000 kPa, x2 = 0.7526): 712.92 ± 0.34 kg/m3; mass density (352.76 K, 11000 kPa, x2 = 0.7526): 714.03 ± 0.35 kg/m3; mass density (352.76 K, 12000 kPa, x2 = 0.7526): 715.12 ± 0.36 kg/m3; mass density (352.76 K, 13000 kPa, x2 = 0.7526): 716.21 ± 0.38 kg/m3; mass density (352.76 K, 14000 kPa, x2 = 0.7526): 717.27 ± 0.39 kg/m3; mass density (352.76 K, 15000 kPa, x2 = 0.7526): 718.31 ± 0.4 kg/m3; mass density (352.76 K, 16000 kPa, x2 = 0.7526): 719.35 ± 0.42 kg/m3; mass density (352.76 K, 17000 kPa, x2 = 0.7526): 720.36 ± 0.43 kg/m3; mass density (352.76 K, 18000 kPa, x2 = 0.7526): 721.35 ± 0.44 kg/m3; mass density (352.76 K, 19000 kPa, x2 = 0.7526): 722.32 ± 0.45 kg/m3; mass density (352.76 K, 20000 kPa, x2 = 0.7526): 723.29 ± 0.47 kg/m3; mass density (352.85 K, 1000 kPa, x2 = 0.2507): 684.78 ± 0.23 kg/m3; mass density (352.85 K, 2000 kPa, x2 = 0.2507): 685.92 ± 0.24 kg/m3; mass density (352.85 K, 3000 kPa, x2 = 0.2507): 687.03 ± 0.26 kg/m3; mass density (352.85 K, 4000 kPa, x2 = 0.2507): 688.14 ± 0.27 kg/m3; mass density (352.85 K, 5000 kPa, x2 = 0.2507): 689.24 ± 0.29 kg/m3; mass density (352.85 K, 6000 kPa, x2 = 0.2507): 690.33 ± 0.3 kg/m3; mass density (352.85 K, 7000 kPa, x2 = 0.2507): 691.41 ± 0.32 kg/m3; mass density (352.85 K, 8000 kPa, x2 = 0.2507): 692.48 ± 0.33 kg/m3; mass density (352.85 K, 9000 kPa, x2 = 0.2507): 693.55 ± 0.34 kg/m3; mass density (352.85 K, 10000 kPa, x2 = 0.2507): 694.61 ± 0.36 kg/m3; mass density (352.85 K, 11000 kPa, x2 = 0.2507): 695.65 ± 0.37 kg/m3; mass density (352.85 K, 12000 kPa, x2 = 0.2507): 696.68 ± 0.39 kg/m3; mass density (352.85 K, 13000 kPa, x2 = 0.2507): 697.7 ± 0.4 kg/m3; mass density (352.85 K, 14000 kPa, x2 = 0.2507): 698.7 ± 0.41 kg/m3; mass density (352.85 K, 15000 kPa, x2 = 0.2507): 699.68 ± 0.43 kg/m3; mass density (352.85 K, 16000 kPa, x2 = 0.2507): 700.65 ± 0.44 kg/m3; mass density (352.85 K, 17000 kPa, x2 = 0.2507): 701.61 ± 0.45 kg/m3; mass density (352.85 K, 18000 kPa, x2 = 0.2507): 702.54 ± 0.47 kg/m3; mass density (352.85 K, 19000 kPa, x2 = 0.2507): 703.46 ± 0.48 kg/m3; mass density (352.85 K, 20000 kPa, x2 = 0.2507): 704.34 ± 0.5 kg/m3; mass density (362.64 K, 1000 kPa, x2 = 0.1011): 675.19 ± 0.23 kg/m3; mass density (362.64 K, 1000 kPa, x2 = 0.4963): 680.64 ± 0.23 kg/m3; mass density (362.64 K, 1000 kPa, x2 = 0.9014): 707.28 ± 0.22 kg/m3; mass density (362.64 K, 2000 kPa, x2 = 0.1011): 676.37 ± 0.25 kg/m3; mass density (362.64 K, 2000 kPa, x2 = 0.4963): 681.93 ± 0.24 kg/m3; mass density (362.64 K, 2000 kPa, x2 = 0.9014): 708.6 ± 0.23 kg/m3; mass density (362.64 K, 3000 kPa, x2 = 0.1011): 677.53 ± 0.26 kg/m3; mass density (362.64 K, 3000 kPa, x2 = 0.4963): 683.18 ± 0.26 kg/m3; mass density (362.64 K, 3000 kPa, x2 = 0.9014): 709.92 ± 0.24 kg/m3; mass density (362.64 K, 4000 kPa, x2 = 0.1011): 678.69 ± 0.28 kg/m3; mass density (362.64 K, 4000 kPa, x2 = 0.4963): 684.42 ± 0.27 kg/m3; mass density (362.64 K, 4000 kPa, x2 = 0.9014): 711.21 ± 0.26 kg/m3; mass density (362.64 K, 5000 kPa, x2 = 0.1011): 679.84 ± 0.29 kg/m3; mass density (362.64 K, 5000 kPa, x2 = 0.4963): 685.66 ± 0.29 kg/m3; mass density (362.64 K, 5000 kPa, x2 = 0.9014): 712.52 ± 0.27 kg/m3; mass density (362.64 K, 6000 kPa, x2 = 0.1011): 680.98 ± 0.31 kg/m3; mass density (362.64 K, 6000 kPa, x2 = 0.4963): 686.87 ± 0.3 kg/m3; mass density (362.64 K, 6000 kPa, x2 = 0.9014): 713.8 ± 0.28 kg/m3; mass density (362.64 K, 7000 kPa, x2 = 0.1011): 682.11 ± 0.32 kg/m3; mass density (362.64 K, 7000 kPa, x2 = 0.4963): 688.09 ± 0.32 kg/m3; mass density (362.64 K, 7000 kPa, x2 = 0.9014): 715.07 ± 0.29 kg/m3; mass density (362.64 K, 8000 kPa, x2 = 0.1011): 683.24 ± 0.34 kg/m3; mass density (362.64 K, 8000 kPa, x2 = 0.4963): 689.28 ± 0.33 kg/m3; mass density (362.64 K, 8000 kPa, x2 = 0.9014): 716.3 ± 0.31 kg/m3; mass density (362.64 K, 9000 kPa, x2 = 0.1011): 684.33 ± 0.35 kg/m3; mass density (362.64 K, 9000 kPa, x2 = 0.4963): 690.44 ± 0.35 kg/m3; mass density (362.64 K, 9000 kPa, x2 = 0.9014): 717.55 ± 0.32 kg/m3; mass density (362.64 K, 10000 kPa, x2 = 0.1011): 685.43 ± 0.37 kg/m3; mass density (362.64 K, 10000 kPa, x2 = 0.4963): 691.61 ± 0.36 kg/m3; mass density (362.64 K, 10000 kPa, x2 = 0.9014): 718.74 ± 0.33 kg/m3
